Data: publication PMC4459817, “Vasculotide reduces endothelial permeability and tumor cell extravasation in the absence of binding to or agonistic activation of Tie2” (EMBO Molecular Medicine, 2015)

Tested on: Tie2 in lung, kidney, liver homogenates
Assay: in vivo Tie2 phosphorylation in liver, lungs, kidneys
Design: species or system mouse
Method: Tumor-free mice were treated for 1 week with either vehicle, VT (250 ng/2 days), SU (60 mg/kg/day), or VT+SU and then sacrificed 5 h after their last doses of treatment. Tissue homogenates derived from EC-rich organs (livers, lungs, kidneys) were subjected to Tie2 immunoprecipitation and then immunoblotted for phosphorylated Tie2 (Fig8: ‘p-Tie2’) or total Tie2 (Fig8: ‘Tie2’).
Figure 8 In vivo Vasculotide treatments: effects on Tie2 receptor phosphorylation in vascular-rich organs (liver, lungs, and kidneys) • Healthy non-tumor-bearing mice (n = 8–9 per group) were treated for 1 week with vehicle (Veh); Vasculotide 250 ng/2 days IP (VT); sunitinib 60 mg/kg/day PO (SU); or VT + SU. Tie2 immunoprecipitates from lung, kidney, or liver homogenates were pooled from two mice per treatment group and immunoblotted with an anti-Tie2 antibody (‘Tie2’) or an anti-phosphotyrosine antibody (‘p-Tie2’). • Densitometry analysis of immunoblots from (A). pTie2/Tie2 ratios were internally normalized to the vehicle group within each blot. Means ± SEM and P values (unpaired t-tests) are depicted. Source data are available online for this figure.
5. Bioluminescence imaging (BI) of tumor burden
For in vivo BI: Mice were injected intraperitoneally with 150mg/kg luciferin (Promega) 10 minutes prior to and anesthetized with isofluorane just before luminescent pseudocolor imaging (uniform settings: CCD camera locked at -105 °C, exposure=60s, f/1, subject size=1.5cm, bin=8, FOV=23.2cm, full image correction) using the IVIS 200 Imaging System (Caliper/PerkinElmer). Using the Living Image software (v2.50.1, Xenogen), weekly images were analyzed under uniform color range on grayscale photographic overlay. Total fluxes (photons/sec) were quantified within consistent regions of interest and statistically compared ideally at a timepoint before any deaths have occurred. […]
Quantification procedure involved visual survey of entire tissue sections and tallying of DAB-stained metastatic nodules sizes (# cells) at 20-40X on a Leica DM LB2 Microscope. […]

Row | Compound | Tie2 phosphorylation, sunitinib effect (SU 60 mg/kg/day, stated in Discussion) | ratio of phosphorylated Tie2 relative to total Tie2 (pTie2/Tie2) (1 week, VT 250 ng/2 days IP, SU 60 mg/kg/day PO or VT + SU, liver, lungs, kidneys, n = 8–9, Fig8) | lung-specific pTie2/Tie2 vs. vehicle (VT 250 ng/2 days IP, 1 week, unpaired t-test, Fig8)
1 | CCN(CC)CCNC(=O)c1c(C)[nH]c(/C=C2\C(=O)Nc3ccc(F)cc32)c1C [sunitinib, reference compound] | inhibition of Tie2 phosphorylation | – | –
2 | CHHHRHSF [Vasculotide, 4-armed maleimide-functionalized polyethylene glycol (PEG) backbone to link together four cysteine-capped T7 peptides, that is, CHHHRHSF] | – | did not increase the ratio of phosphorylated Tie2 relative to total Tie2 | significantly lower
